Measurements: patent US20220265694A1, “COMPOSITIONS AND METHODS FOR TREATING AN INFECTION” (CMPD LICENSING, LLC, priority 2016, published 2022)
Where two headings read alike, the source gives them in different places.

Tests used:
[1] = tested on: Citrobacter freundii; assay: Expected efficacy of antibiotic agents; details: expected efficacy against Citrobacter freundii; Gram: neg
[2] = tested on: Diphtheroids; assay: Expected efficacy of antibiotic agents; details: expected efficacy against Diphtheroids; Gram: pos
[3] = tested on: Serratia marcescens; assay: Expected efficacy of antibiotic agents; details: expected efficacy against Serratia marcescens; Gram: neg
[4] = tested on: Acinetobacter baumannii; assay: Expected efficacy of antibiotic agents; details: expected efficacy against Acinetobacter baumannii; Gram: neg
[5] = tested on: Francisella tularensis
[6] = tested on: Campylobacter jejuni; assay: Expected efficacy of antibiotic agents; details: expected efficacy against Campylobacter jejuni; Gram: neg
[7] = tested on: Streptococcus pyogenes; assay: Expected efficacy of antibiotic agents; details: expected efficacy against Streptococcus pyogenes; Gram: pos
[8] = tested on: Providencia rettgeri; assay: Expected efficacy of antibiotic agents; details: expected efficacy against Providencia rettgeri; Gram: neg
[9] = tested on: Mycoplasma pneumoniae; assay: Expected efficacy of antibiotic agents; details: expected efficacy against Mycoplasma pneumoniae; Gram: n/a
[10] = tested on: Bordetella pertussis; assay: Expected efficacy of antibiotic agents; details: expected efficacy against Bordetella pertussis; Gram: neg
[11] = tested on: Peptostreptococcus; assay: Expected efficacy of antibiotic agents; details: expected efficacy against Peptostreptococcus; Gram: pos
[12] = tested on: Enterobacter aerogenes; assay: Expected efficacy of antibiotic agents; details: expected efficacy against Enterobacter aerogenes; Gram: neg
[13] = tested on: Enterobacter cloacae; assay: Expected efficacy of antibiotic agents; details: expected efficacy against Enterobacter cloacae; Gram: neg
[14] = tested on: Legionella pneumophila
[15] = tested on: Klebsiella (Calymmatobacterium); assay: Expected efficacy of antibiotic agents; details: expected efficacy against Klebsiella (Calymmatobacterium); Gram: neg
[16] = tested on: Chlamydia trachomatis; assay: Expected efficacy of antibiotic agents; details: expected efficacy against Chlamydia trachomatis; Gram: n/a
[17] = tested on: Providencia stuartii; assay: Expected efficacy of antibiotic agents; details: expected efficacy against Providencia stuartii; Gram: neg
[18] = tested on: Haemophilus ducreyi; assay: Expected efficacy of antibiotic agents; details: expected efficacy against Haemophilus ducreyi; Gram: neg
[19] = tested on: Yersinia pestis
[20] = tested on: Corynebacterium jeikeium; assay: Expected efficacy of antibiotic agents; details: expected efficacy against Corynebacterium jeikeium; Gram: pos
[21] = tested on: Staphylococcus epidermidis; assay: Expected efficacy of antibiotic agents; details: expected efficacy against Staphylococcus epidermidis; Gram: pos
[22] = tested on: Corynebacterium urealyticum; assay: Expected efficacy of antibiotic agents; details: expected efficacy against Corynebacterium urealyticum; Gram: pos
[23] = tested on: Moraxella catarrhalis; assay: Expected efficacy of antibiotic agents; details: expected efficacy against Moraxella catarrhalis; Gram: neg
[24] = tested on: Vibrio cholerae; assay: Expected efficacy of antibiotic agents; details: expected efficacy against Vibrio cholerae; Gram: neg
[25] = tested on: Neisseria gonorrhoeae; assay: Expected efficacy of antibiotic agents; details: expected efficacy against Neisseria gonorrhoeae; Gram: neg
[26] = tested on: Salmonella typhi; assay: Expected efficacy of antibiotic agents; details: expected efficacy against Salmonella typhi; Gram: neg
[27] = tested on: Klebsiella pneumoniae; assay: Expected efficacy of antibiotic agents; details: expected efficacy against Klebsiella pneumoniae; Gram: neg
[28] = tested on: Bacteroides fragilis; assay: Expected efficacy of antibiotic agents; details: expected efficacy against Bacteroides fragilis; Gram: anaer
[29] = tested on: Klebsiella oxytoca; assay: Expected efficacy of antibiotic agents; details: expected efficacy against Klebsiella oxytoca; Gram: neg
[30] = tested on: Clostridium perfringens
[31] = tested on: Enterobacter sakazakii; assay: Expected efficacy of antibiotic agents; details: expected efficacy against Enterobacter sakazakii; Gram: neg
[32] = tested on: Haemophilus influenzae; assay: Expected efficacy of antibiotic agents; details: expected efficacy against Haemophilus influenzae; Gram: neg
[33] = tested on: Rickettsiae
[34] = tested on: Chlamydia psittaci
[35] = tested on: Acinetobacter calcoaceticus; assay: Expected efficacy of antibiotic agents; details: expected efficacy against Acinetobacter calcoaceticus; Gram: neg
[36] = tested on: Enterococcus faecium; assay: Expected efficacy of antibiotic agents; details: expected efficacy against Enterococcus faecium; Gram: pos
[37] = tested on: Enterococcus faecalis; assay: Expected efficacy of antibiotic agents; details: expected efficacy against Enterococcus faecalis; Gram: pos
[38] = tested on: Shigella sonnei; assay: Expected efficacy of antibiotic agents; details: expected efficacy against Shigella sonnei; Gram: neg
[39] = tested on: Pseudomonas aeruginosa; assay: Expected efficacy of antibiotic agents; details: expected efficacy against Pseudomonas aeruginosa; Gram: neg
[40] = tested on: Streptococcus agalactiae; assay: Expected efficacy of antibiotic agents; details: expected efficacy against Streptococcus agalactiae; Gram: pos
[41] = tested on: Escherichia coli; assay: Expected efficacy of antibiotic agents; details: expected efficacy against Escherichia coli; Gram: neg
[42] = tested on: Citrobacter diversus; assay: Expected efficacy of antibiotic agents; details: expected efficacy against Citrobacter diversus; Gram: neg
[43] = tested on: Chlamydia pneumoniae; assay: Expected efficacy of antibiotic agents; details: expected efficacy against Chlamydia pneumoniae; Gram: n/a

CO/N=C(\C(=O)N[C@@H]1C(=O)N2C(C(=O)O)=C(CSc3nc(=O)c(=O)[nH]n3C)CS[C@H]12)c1csc(N)n1 [Ceftriaxone]
Efficacy [1]: yes
Efficacy [2]: no
Efficacy [3]: yes
Efficacy [4]: no
Efficacy ([5]; expected efficacy against Francisella tularensis, Gram: neg): no
Efficacy [6]: no
Efficacy [7]: yes
Efficacy [8]: yes
Efficacy [9]: no
Efficacy [10]: no
Efficacy [11]: yes
Efficacy [12]: yes
Efficacy [13]: yes
Efficacy ([14]; expected efficacy against Legionella pneumophila, Gram: neg): no
Efficacy [15]: yes
Efficacy [16]: no
Efficacy [17]: yes
Efficacy [18]: yes
Efficacy ([19]; expected efficacy against Yersinia pestis, Gram: neg): no
Efficacy [20]: no
Efficacy [21]: yes
Efficacy [22]: no
Efficacy [23]: yes
Efficacy [24]: no
Efficacy [25]: yes
Efficacy [26]: yes
Efficacy [27]: yes
Efficacy [28]: yes
Efficacy [29]: yes
Efficacy ([30]; expected efficacy against Clostridium perfringens, Gram: anaer): yes
Efficacy [31]: yes
Efficacy [32]: yes
Efficacy ([33]; expected efficacy against Rickettsiae, Gram: neg): no
Efficacy ([34]; expected efficacy against Chlamydia psittaci, Gram: n/a): no
Efficacy [35]: no
Efficacy [36]: no
Efficacy [37]: no
Efficacy [38]: yes
Efficacy [39]: no
Efficacy [40]: yes
Efficacy [41]: yes
Efficacy [42]: yes
Efficacy [43]: no

CN[C@H](CC(C)C)C(=O)N[C@H]1C(=O)N[C@@H](CC(N)=O)C(=O)N[C@H]2C(=O)N[C@H]3C(=O)N[C@H](C(=O)N[C@H](C(=O)O)c4cc(O)cc(O)c4-c4cc3ccc4O)[C@H](O)c3ccc(c(Cl)c3)Oc3cc2cc(c3O[C@@H]2O[C@H](CO)[C@@H](O)[C@H](O)[C@H]2O[C@H]2C[C@](C)(N)[C@H](O)[C@H](C)O2)Oc2ccc(cc2Cl)[C@H]1O [Vancomycin]
Efficacy [1]: no
Efficacy [2]: yes
Efficacy [3]: no
Efficacy [4]: no
Efficacy [5]: no
Efficacy [6]: no
Efficacy [7]: yes
Efficacy [8]: no
Efficacy [9]: no
Efficacy [10]: no
Efficacy [11]: yes
Efficacy [12]: no
Efficacy [13]: no
Efficacy [14]: no
Efficacy [15]: no
Efficacy [16]: no
Efficacy [17]: no
Efficacy [18]: no
Efficacy [19]: no
Efficacy [20]: yes
Efficacy [21]: yes
Efficacy [22]: yes
Efficacy [23]: no
Efficacy [24]: no
Efficacy [25]: no
Efficacy [26]: no
Efficacy [27]: no
Efficacy [28]: no
Efficacy [29]: no
Efficacy [30]: no
Efficacy [31]: no
Efficacy [32]: no
Efficacy [33]: no
Efficacy [34]: no
Efficacy [35]: no
Efficacy [36]: yes, not VRE
Efficacy [37]: yes
Efficacy [38]: no
Efficacy [39]: no
Efficacy [40]: yes
Efficacy [41]: no
Efficacy [42]: no
Efficacy [43]: no
